In patent US20030138946A1:

Key:
[1] = test system: CD8^+ 2C lymph node cells; assay: Primary proliferative response of CD8+ 2C lymph node cells to peptides presented by transfected fly cells (3HTdR); format: cell-based, mouse; details: peptide 10 μM
Experimental: Using a standard tissue culture system (Cai, Z. and Sprent, J. (1994) J. Exp. Med. 179: 2005-2015), doses of 5×10^4 purified CD8^+ 2C lymph node (LN) cells were cultured at 37° C. with doses of 3×10^5 transfected fly cells ±peptides (10 μM final concentration). Peptides were synthesized by R. W. Johnson Pharmaceutical Research Institute (Sykulev, et al. (1994) Immunity 1: 15-22. Proliferative responses were measured by adding ^3HTdR (1 μCi/well) 8 hours prior to harvest. IL-2 production was measured by removing supernatants from the cultures at 48 hours and adding 50 μl supernatant to an IL-2 responsive indicator cell line (CTLL); proliferation of the indicator line was measured by addition of ^3HTdR. The data shown in Table 2 are the means of triplicate cultures. The transfected Drosophila S2 cells die rapidly at 37° C. and fail to incorporate ^3HTdR at this temperature.

[2] = test system: normal B6 CD8^+ cells; assay: Proliferation of normal (nontransgenic) B6 CD8+ cells to peptide on L^d.B7.ICAM Drosophila APC; format: cell-based, mouse; details: 10 μM peptide, L^d.B7.1CAM APC, 1×10^6 responder cells, no added cytokines
Experimental: The capacity of L^d.B7.1CAM Drosophila cells to induce a strong primary response of 2C TCR transgenic CD8^+ cells raised the question whether Drosophila cells could act as antigen-presenting cells for normal (nontransgenic) CD8^+ cells. Since the 2C mice were on a B6 (H-2b) background, the response of normal B6 CD8^+ cells was tested. Graded doses of CD8^+ cells from normal B6 mice were cultured with 10 μM QL9 peptide presented by L^d.B7.1CAM Drosophila antigen-presenting cells, i.e. a situation where a diverse repertoire of T-cells was exposed to only a single alloantigen (L^d+QL9) but at high concentration. As shown in FIG. 19 (left), presentation of QL9 by L^d.B7.1CAM antigen-presenting cells was indeed immunogenic for normal B6 CD8^+ cells and led to appreciable proliferative responses on Day 3 (80,000 cpm) with large doses of responder cells (1×10^6) in the absence of added cytokines; responses to an unrelated peptide, MCMV, were much lower (though significant) and no response occurred in the absence of peptide. As expected, the response of normal B6 CD8+cells to QL9 plus L^d.B7.1CAM antigen-presenting cells was substantially lower than with normal B10.D2 spleen cells as antigen-presenting cells (where the allostimulus was provided by a multiplicity of self peptides bound to L^d, K^d and D^d, but at low concentration) (FIG. 19, right. Note the difference in the Y axis scales).

In the case of “Gln-Leu-Ser-Pro-Phe-Pro-Phe-Asp-Leu [QL9]”, the “Proliferation (Day 3) ^3HTdR incorporation, fly cells expressing L^d” value ([1]; APC L^d) is reported as 0.2 cpm × 10^3, the “Proliferation (Day 3) ^3HTdR incorporation, fly cells expressing L^d + B7.1” value ([1]; APC L^d + B7.1) is reported as 60.9 cpm × 10^3 and the “Proliferation (Day 3) ^3HTdR incorporation, fly cells expressing L^d + B7.1 + ICAM-1” value ([1]; APC L^d + B7.1 + ICAM-1) is reported as 263.7 cpm × 10^3. For the same substance, the “Proliferation (Day 3) ^3HTdR incorporation, fly cells expressing L^d + ICAM-1” value ([1]; APC L^d + ICAM-1) was 73.9 cpm × 10^3, the “Proliferation (Day 3) ^3HTdR incorporation, L^d + B7.1 combined with L^d + ICAM-1” value ([1]; mixture of two APC lines) was 132.9 cpm × 10^3 and the “proliferative response on Day 3” value [2] was 80,000 cpm.
